According to ChEMBL document CHEMBL3046635, “Synthesis and Herbicidal Activity of New Pyrazole-4-carboxamide Derivatives” (J Pestic Sci, 2004):
Calls of active or inactive are those of the source.

Experiments:
Eleocharis acicularis [1] = assay: Pre-emergence herbicidal activity against Eleocharis acicularis at 500 g a.i/ha measured after 14 days; assay type: functional, organism-based
Lindernia procumbens [2] = assay: Post-emergence herbicidal activity against Lindernia procumbens assessed as bleaching of stem/leaf parts; assay type: functional, organism-based; also: test concentration or dose not given here
[3] = tested on: Schoenoplectiella juncoides; assay: Post-emergence herbicidal activity against Schoenoplectiella juncoides assessed as bleaching of stem/leaf parts; assay type: functional, organism-based; also: test concentration or dose not given here
[4] = tested on: Schoenoplectiella juncoides; assay: Pre-emergence herbicidal activity against Schoenoplectiella juncoides assessed as bleaching of stem/leaf parts; assay type: functional, organism-based
Elatine triandra [5] = assay: Pre-emergence herbicidal activity against Elatine triandra at 500 g a.i/ha measured after 14 days; assay type: functional, organism-based
Echinochloa oryzicola [6] = assay: Post-emergence herbicidal activity against Echinochloa oryzicola assessed as bleaching of stem/leaf parts; assay type: functional, organism-based; also: test concentration or dose not given here
Rotala indica [7] = assay: Pre-emergence herbicidal activity against Rotala indica at 500 g a.i/ha measured after 14 days; assay type: functional, organism-based
Pontederia vaginalis [8] = assay: Pre-emergence herbicidal activity against Monochoria vaginalis at 500 g a.i/ha measured after 14 days; assay type: functional, organism-based
Eleocharis acicularis [9] = assay: Post-emergence herbicidal activity against Eleocharis acicularis assessed as bleaching of stem/leaf parts; assay type: functional, organism-based; also: test concentration or dose not given here
Cyperus difformis [10] = assay: Pre-emergence herbicidal activity against Cyperus difformis at 500 g a.i/ha measured after 14 days; assay type: functional, organism-based
Pontederia vaginalis [11] = assay: Pre-emergence herbicidal activity against Monochoria vaginalis assessed as bleaching of stem/leaf parts; assay type: functional, organism-based
Cyperus difformis [12] = assay: Post-emergence herbicidal activity against Cyperus difformis assessed as bleaching of stem/leaf parts; assay type: functional, organism-based; also: test concentration or dose not given here
Cyperus difformis [13] = assay: Pre-emergence herbicidal activity against Cyperus difformis assessed as bleaching of stem/leaf parts; assay type: functional, organism-based
Lindernia procumbens [14] = assay: Pre-emergence herbicidal activity against Lindernia procumbens at 500 g a.i/ha measured after 14 days; assay type: functional, organism-based
Rotala indica [15] = assay: Post-emergence herbicidal activity against Rotala indica assessed as bleaching of stem/leaf parts; assay type: functional, organism-based; also: test concentration or dose not given here
[16] = tested on: Schoenoplectiella juncoides; assay: Pre-emergence herbicidal activity against Schoenoplectiella juncoides at 500 g a.i/ha measured after 14 days; assay type: functional, organism-based
Pontederia vaginalis [17] = assay: Post-emergence herbicidal activity against Monochoria vaginalis assessed as bleaching of stem/leaf parts; assay type: functional, organism-based; also: test concentration or dose not given here
Ammannia multiflora [18] = assay: Pre-emergence herbicidal activity against Ammannia multiflora assessed as bleaching of stem/leaf parts; assay type: functional, organism-based
Ammannia multiflora [19] = assay: Post-emergence herbicidal activity against Ammannia multiflora assessed as bleaching of stem/leaf parts; assay type: functional, organism-based; also: test concentration or dose not given here
Ammannia multiflora [20] = assay: Pre-emergence herbicidal activity against Ammannia multiflora at 500 g a.i/ha measured after 14 days; assay type: functional, organism-based
Rotala indica [21] = assay: Pre-emergence herbicidal activity against Rotala indica assessed as bleaching of stem/leaf parts; assay type: functional, organism-based
Lindernia procumbens [22] = assay: Pre-emergence herbicidal activity against Lindernia procumbens assessed as bleaching of stem/leaf parts; assay type: functional, organism-based
Echinochloa oryzicola [23] = assay: Pre-emergence herbicidal activity against Echinochloa oryzicola at 500 g a.i/ha measured after 14 days; assay type: functional, organism-based
Oryza sativa = assay: Phytotoxicity against Oryza sativa cv. Koshihikari (rice) at 500 g a.i/ha measured after 14 days; assay type: organism-based; conditions: in vivo, 336 h
Elatine triandra [24] = assay: Post-emergence herbicidal activity against Elatine triandra assessed as bleaching of stem/leaf parts; assay type: functional, organism-based; also: test concentration or dose not given here
Echinochloa oryzicola [25] = assay: Pre-emergence herbicidal activity against Echinochloa oryzicola assessed as bleaching of stem/leaf parts; assay type: functional, organism-based
Eleocharis acicularis [26] = assay: Pre-emergence herbicidal activity against Eleocharis acicularis assessed as bleaching of stem/leaf parts; assay type: functional, organism-based
Elatine triandra [27] = assay: Pre-emergence herbicidal activity against Elatine triandra assessed as bleaching of stem/leaf parts; assay type: functional, organism-based

Compound | Activity (Lindernia procumbens [2]) | Activity [3] | Activity [4] | Activity (Elatine triandra [5]) | Activity (Echinochloa oryzicola [6]) | Activity (Rotala indica [7]) | Activity (Pontederia vaginalis [8]) | Activity (Eleocharis acicularis [9]) | Activity (Cyperus difformis [10]) | Activity (Pontederia vaginalis [11]) | Activity (Cyperus difformis [12]) | Activity (Cyperus difformis [13]) | Activity (Lindernia procumbens [14]) | Activity (Rotala indica [15]) | Activity [16] | Activity (Pontederia vaginalis [17]) | Activity (Ammannia multiflora [18]) | Activity (Ammannia multiflora [19]) | Activity (Ammannia multiflora [20]) | Activity (Rotala indica [21]) | further results
C=CCNC(=O)c1cn(C)nc1OCc1cccc(C(F)(F)F)c1 | Active | Active | Active | inactive | Active | inactive | inactive | Active | inactive | Active | Active | Active | inactive | Active | inactive | Active | Active | Active | inactive | Active | Activity (Eleocharis acicularis [1]): inactive; Activity (Lindernia procumbens [22]): Active; Activity (Echinochloa oryzicola [23]): inactive; Activity (Oryza sativa): Non-toxic; Activity (Elatine triandra [24]): Active; Activity (Echinochloa oryzicola [25]): Active; Activity (Eleocharis acicularis [26]): Active; Activity (Elatine triandra [27]): Active
CCN(C(=O)c1cn(C)nc1OCc1cccc(C(F)(F)F)c1)C1CCCCC1 | Active | Active | Active | inactive | Active | inactive | inactive | Active | inactive | Active | Active | Active | inactive | Active | inactive | Active | Active | Active | inactive | Active | Activity (Eleocharis acicularis [1]): inactive; Activity (Lindernia procumbens [22]): Active; Activity (Echinochloa oryzicola [23]): inactive; Activity (Oryza sativa): Non-toxic; Activity (Elatine triandra [24]): Active; Activity (Echinochloa oryzicola [25]): Active; Activity (Eleocharis acicularis [26]): Active; Activity (Elatine triandra [27]): Active
C#CCNC(=O)c1cn(C)nc1OCc1cccc(C(F)(F)F)c1 | Active | Active | Active | inactive | Active | inactive | inactive | Active | inactive | Active | Active | Active | inactive | Active | inactive | Active | Active | Active | inactive | Active | Activity (Eleocharis acicularis [1]): inactive; Activity (Lindernia procumbens [22]): Active; Activity (Echinochloa oryzicola [23]): inactive; Activity (Oryza sativa): Non-toxic; Activity (Elatine triandra [24]): Active; Activity (Echinochloa oryzicola [25]): Active; Activity (Eleocharis acicularis [26]): Active; Activity (Elatine triandra [27]): Active
Cn1cc(C(=O)Nc2cccc(Cl)c2)c(OCc2cccc(C(F)(F)F)c2)n1 | Active | Active | Active | Active | Active | Active | inactive | Active | inactive | Active | Active | Active | Active | Active | Active | Active | Active | Active | Active | Active | Activity (Lindernia procumbens [22]): Active; Activity (Echinochloa oryzicola [23]): inactive; Activity (Oryza sativa): Non-toxic; Activity (Elatine triandra [24]): Active; Activity (Echinochloa oryzicola [25]): Active; Activity (Eleocharis acicularis [26]): Active; Activity (Elatine triandra [27]): Active
Cn1cc(C(=O)NOc2ccc(C(C)(C)C)cc2)c(OCc2cccc(C(F)(F)F)c2)n1 | Active | Active | Active | inactive | Active | inactive | inactive | Active | inactive | Active | Active | Active | inactive | Active | inactive | Active | Active | Active | inactive | Active | Activity (Eleocharis acicularis [1]): inactive; Activity (Lindernia procumbens [22]): Active; Activity (Echinochloa oryzicola [23]): inactive; Activity (Oryza sativa): Non-toxic; Activity (Elatine triandra [24]): Active; Activity (Echinochloa oryzicola [25]): Active; Activity (Eleocharis acicularis [26]): Active; Activity (Elatine triandra [27]): Active
Cn1nc(OCc2cccc(C(F)(F)F)c2)c(C(=O)NOc2ccc(F)cc2F)c1Cl | Active | Active | Active | inactive | Active | inactive | inactive | Active | inactive | Active | Active | Active | inactive | Active | inactive | Active | Active | Active | inactive | Active | Activity (Eleocharis acicularis [1]): inactive; Activity (Lindernia procumbens [22]): Active; Activity (Echinochloa oryzicola [23]): inactive; Activity (Oryza sativa): Non-toxic; Activity (Elatine triandra [24]): Active; Activity (Echinochloa oryzicola [25]): Active; Activity (Eleocharis acicularis [26]): Active; Activity (Elatine triandra [27]): Active
CCCn1cc(C(=O)NOCC)c(OCc2cccc(C(F)(F)F)c2)n1 | Active | Active | Active | inactive | Active | inactive | inactive | Active | inactive | Active | Active | Active | inactive | Active | inactive | Active | Active | Active | inactive | Active | Activity (Eleocharis acicularis [1]): inactive; Activity (Lindernia procumbens [22]): Active; Activity (Echinochloa oryzicola [23]): inactive; Activity (Oryza sativa): Non-toxic; Activity (Elatine triandra [24]): Active; Activity (Echinochloa oryzicola [25]): Active; Activity (Eleocharis acicularis [26]): Active; Activity (Elatine triandra [27]): Active
Cn1cc(C(=O)NCc2cccc(Cl)c2)c(OCc2cccc(C(F)(F)F)c2)n1 | Active | Active | Active | inactive | Active | inactive | inactive | Active | inactive | Active | Active | Active | inactive | Active | inactive | Active | Active | Active | inactive | Active | Activity (Eleocharis acicularis [1]): inactive; Activity (Lindernia procumbens [22]): Active; Activity (Echinochloa oryzicola [23]): inactive; Activity (Oryza sativa): Non-toxic; Activity (Elatine triandra [24]): Active; Activity (Echinochloa oryzicola [25]): Active; Activity (Eleocharis acicularis [26]): Active; Activity (Elatine triandra [27]): Active
Cn1cc(C(=O)Nc2ccc(S(C)(=O)=O)cc2)c(OCc2cccc(C(F)(F)F)c2)n1 | Active | Active | Active | inactive | Active | inactive | inactive | Active | inactive | Active | Active | Active | inactive | Active | inactive | Active | Active | Active | inactive | Active | Activity (Lindernia procumbens [22]): Active; Activity (Echinochloa oryzicola [23]): inactive; Activity (Oryza sativa): Non-toxic; Activity (Elatine triandra [24]): Active; Activity (Echinochloa oryzicola [25]): Active; Activity (Eleocharis acicularis [26]): Active; Activity (Elatine triandra [27]): Active
